Reference: patent publication EP1660440B1, “ACYLOXYALKYL CARBAMATE PRODRUGS, METHODS OF SYNTHESIS AND USE” (priority 2003, dated 2005)
Where two headings read alike, the source gives them in different places.

What was measured:
[1] = rat, plasma, 2 µM
Method: (§1) The stabilities of prodrugs were evaluated in one or more in vitro systems using a variety of tissue preparations following methods known in the art. The chemical stability of prodrugs in aqueous buffers at pH's of 2.0, 7.4 and 8.0 were also measured. […] Each preparation was incubated with test compound at 37°C for one hour. Aliquots (50 µL) were removed at 0, 30, and 60 min and quenched with 0.1 % trifluoroacetic acid in acetonitrile.

Caco-2 cells = details: human, Caco-2, 200 uM
Method: For example, cellular permeability may be evaluated by examining the flux of a prodrug across a cultured polarized cell monolayer (e.g., Caco-2 cells). Caco-2 cells obtained from continuous culture (passage less than 28) were seeded at high density onto Transwell polycarbonate filters. Cells were maintained with DMEM / 10% fetal calf serum + 0.1 mM nonessential amino acids + 2 mM L-Gln, 5% CO2/ / 95% O2, 37°C until the day of the experiment. Permeability studies were conducted at pH 6.5 apically (in 50 mM MES buffer containing 1 mM CaCl2, 1mM MgCl2, 150 mM NaCl, 3 mM KCl, 1 mM NaH2PO4, 5 mM glucose) and pH 7.4 basolaterally (in Hanks' balanced salt solution containing 10 mM HEPES) in the presence of efflux pump inhibitors (250 µM MK-571, 250 µM Verapamil, 1 mM Ofloxacin). Inserts were placed in 12 or 24 well plates containing buffer and incubated for 30 min at 37C°. Prodrug (200 µM) was added to the apical or basolateral compartment (donor) and concentrations of prodrug and/or released parent drug in the opposite compartment (receiver) were determined at intervals over 1 hour using LC/MS/MS. Values of apparent permeability (Papp) were calculated using the equation: Papp = Vr (dC/dt)//(ACo) [formula]
Here Vr is the volume of the receiver compartment in mL; dC/dt is the total flux ofprodrug and parent drug (µM/s), determined from the slope of the plot of concentration in the receiver compartment versus time; Co is the initial concentration of prodrug in µM; A is the surface area of the membrane in cm^2.

[2] = rat, 2 µM
Method: as §1

Pancreatin = Pancreatin stability; assay type: in vitro ADME, porcine; details: 5 µM
Method: Pancreatin Stability: Stability studies were conducted by incubating prodrug (5 µM) with 1 % (w/v) pancreatin (Sigma, P-1625, from porcine pancreas) in 0.025 M Tris buffer containing 0.5 M NaCl (pH 7.5) at 37 °C for 60 min. The reaction was stopped by addition of 2 volumes of methanol. After centrifugation at 14,000 rpm for 10 min, the supernatant was removed and analyzed by LC/MS/MS.

[3] = aqueous buffer
Method: as §1

[4] = human, s9, 1 h, 5 µM
Method: For stability studies, prodrug (5 µM) was incubated in Caco-2 homogenate S9 fraction (0.5 mg protein per mL) for 60 min at 37°C. Concentrations of intact prodrug and released baclofen were determined at zero time and 60 minutes using LC/MS/MS.

[5] = human, 2 µM
Method: as §1

[6] = human, plasma, 2 µM
Method: as §1

[7] = 1 % (w/v) pancreatin, pH 7.5, 37 °C, after 60 min

Compound | % of Baclofen Released ([1]; 1 h) [%] | % of Prodrug Remaining ([1]; 1 h) [%] | Ratio A-BB-A (Caco-2 cells) | % of Baclofen Released ([2]; s9, 1 h) [%] | % of Prodrug Remaining ([2]; s9, 1 h) [%] | % of Baclofen Released (Pancreatin; [7]) [%] | % of Prodrug Remaining (Pancreatin; [7]) [%] | % of Baclofen Released ([3]; 1 h, pH 2) [%] | % of Prodrug Remaining ([3]; 1 h, pH 2) [%] | % of Baclofen Released ([3]; 1 h, pH 7.4) [%] | % of Prodrug Remaining ([3]; 1 h, pH 7.4) [%] | % of Baclofen Released ([3]; 1 h, pH 8) [%] | % of Prodrug Remaining ([3]; 1 h, pH 8) [%] | % of Baclofen Released [4] | % of Prodrug Remaining [4] | % of Baclofen Released ([5]; s9, 1 h) [%] | % of Prodrug Remaining ([5]; s9, 1 h) [%] | % of Baclofen Released ([6]; 1 h) [%] | % of Prodrug Remaining ([6]; 1 h) [%] | other results
CC(=O)OCOC(=O)NC[C@H](CC(=O)[O-])c1ccc(Cl)cc1.[Na+] [(10), Sodium 4-[(Acetoxymethoxy)carbonylamino]-(3R)-(4-chlorophenyl)-butanoate] | 15 | 85 | 1.2 | 78 | 0 | 21 | 75 | 1 | 100 | 3 | 101 | 9 | 98 | 96% | 2% | 80 | 1 | 26 | 64 | 
O=C([O-])C[C@@H](CNC(=O)OCOC(=O)c1ccccc1)c1ccc(Cl)cc1.[Na+] [(12), Sodium 4-[(Benzoyloxymethoxy)carbonylamino]-(3R)-(4-chlorophenyl)-butanoate] | 14 | 72 | 5.9 | 100 | 3 | 77 | 15 | 0 | 100 | 0 | 100 | 0 | 105 | 100% | 2% | 100 | 1 | 5 | 95 | 
CC(C)(C)C(=O)OCOC(=O)NC[C@H](CC(=O)[O-])c1ccc(Cl)cc1.[Na+] [(20), Sodium 4-[(Pivaloyloxymethoxy)carbonylamino]-(3R)-(4-chlorophenyl)-butanoate] | 8 | 92 | 11.8 | 75 | 25 | 36 | 58 | 0 | 100 | 0 | 100 | 0 | 103 | 100% | 1% | 100 | 1 | 9 | 82 | 
CCCC(=O)OC(C)OC(=O)NC[C@H](CC(=O)[O-])c1ccc(Cl)cc1.[Na+] (stereo partly drawn) [(32), Sodium 4-[(1-Butanoyloxyethoxy)carbonylamino]-(3R)-(4-chlorophenyl)-butanoate] |  |  | 7.6 |  |  |  |  |  |  |  |  |  |  |  |  |  |  |  |  | 
CC(OC(=O)NC[C@H](CC(=O)[O-])c1ccc(Cl)cc1)OC(=O)C(C)(C)C.[Na+] (stereo partly drawn) [(36), Sodium 4-[(1-Pivaloyrloxyethoxy)carbonylamino]-(3R)-(4-chlorophenyl)-butanoate] |  |  | 1.5 |  |  |  |  |  |  |  |  |  |  |  |  |  |  |  |  | 
CCC(=O)OC(OC(=O)NC[C@H](CC(=O)[O-])c1ccc(Cl)cc1)C(C)C.[Na+] (stereo partly drawn) [(48), Sodium 4-[(1-Propanoyloxyisobutoxy)carbonylamino]-(3R)-(4-chlorophenyl)-butanoate] |  |  | 6.5 |  |  |  |  |  |  |  |  |  |  |  |  |  |  |  |  | 
CCOC(C)(OCC)C(=O)OCOC(=O)NC[C@H](CC(=O)[O-])c1ccc(Cl)cc1.[Na+] [(51), Sodium 4-[(2,2-Diethoxypropanoyloxymethoxy)carbonylamino]-(3R)-(4-chlorophenyl)-butanoate] | 72 | 31 | 3.0 | 103 | 2 | 50 | 44 | 0 | 100 | 2 | 97 | 9 | 91 | 100% | 3% | 91 | 6 | 50 | 53 | 
COc1ccc(C(=O)OCOC(=O)NC[C@H](CC(=O)[O-])c2ccc(Cl)cc2)cc1.[Na+] [(53), Sodium 4-[(4-Methoxybenzoyloxymethoxy)carbonylamino]-(3R)-(4-chlorophenyl)-butan oate] |  |  | 2.4 |  |  |  |  |  |  |  |  |  |  |  |  |  |  |  |  | 
CCCC(OC(=O)NC[C@H](CC(=O)[O-])c1ccc(Cl)cc1)OC(=O)c1ccccc1.[Na+] (stereo partly drawn) [(71), Sodium 4-[(1-Benzoyloxybutoxy)carbonylamino]-(3R)-(4-chlorophenyl)-butanoate] |  |  | 7.1 |  |  |  |  |  |  |  |  |  |  |  |  |  |  |  |  | 
CCCC(OC(=O)NC[C@H](CC(=O)[O-])c1ccc(Cl)cc1)OC(=O)C(C)C.[Na+] (stereo partly drawn) [(72), Sodium 4-[(1-Isobutanoyloxybutoxy)carbonylamino]-(3R)-(4-chlorophenyl)-butanoate] |  |  | 3.5 |  |  |  |  |  |  |  |  |  |  |  |  |  |  |  |  | 
CCCC(=O)OC(CCC)OC(=O)NC[C@H](CC(=O)[O-])c1ccc(Cl)cc1.[Na+] (stereo partly drawn) [(73), Sodium 4-[(1-Butanoyloxybutoxy)carbonylamino]-(3R)-(4-chlorophenyl)-butanoate] |  |  | 3.2 |  |  |  |  |  |  |  |  |  |  |  |  |  |  |  |  | 
CCCC(OC(C)=O)OC(=O)NC[C@H](CC(=O)[O-])c1ccc(Cl)cc1.[Na+] (stereo partly drawn) [(74), Sodium 4-[(1-Acetoxybutoxy)carbonylamino]-(3R)-(4-chlorophenyl)-butanoate] |  |  | 11.2 |  |  |  |  |  |  |  |  |  |  |  |  |  |  |  |  | 
CCCC(=O)OC(CC)OC(=O)NC[C@H](CC(=O)[O-])c1ccc(Cl)cc1.[Na+] (stereo partly drawn) [(78), Sodium 4-[(1-Butanoyloxypropoxy)carbonylamino]-(3R)-(4-chlorophenyl)-butanoate] |  |  | 7.9 |  |  |  |  |  |  |  |  |  |  |  |  |  |  |  |  | 
CCC[C@H](OC(=O)NC[C@H](CC(=O)[O-])c1ccc(Cl)cc1)OC(=O)C(C)C.[Na+] [(91), Sodium 4-{[(1S)-Isobutanoyloxybutoxy]carbonylamino}-(3R)-(4-chlorophenyl)-butanoate] | 10 | 80 |  | 70 | 22 | 78 | 11 | 0 | 100 | 0 | 97 | 1 | 94 | 107% | 6% | 78 | 1 | 2 | 83 | 
CC(C)C(=O)O[C@H](OC(=O)NC[C@H](CC(=O)[O-])c1ccc(Cl)cc1)C(C)C.[Na+] [(100), Sodium 4-{[(1R)-Isobutanoyloxyisobutoxy]carbonylamino}-(3R)-(4-chlorophenyl) -butanoate] | 64 | 9 |  | 85 | 3 | 27 | 68 | 0 | 101 | 0 | 98 | 0 | 95 | 90% | 7% | 83 | 1 | 3 | 89 | 
Sodium 4-[(1-Benzoyloxgyethoxy)carbonylaminol-(3R)-(4-chlorophenyl)-butanoate [(40)] |  |  |  |  |  |  |  |  |  |  |  |  |  | 15/85% | 15/85% |  |  |  |  | % of Baclofen Released ([1]; 60 min): 72/17%; % of Prodrug Remaining ([1]; 60 min): 72/17%; % of Baclofen Released ([2]; s9, 60 min): 8/96%; % of Prodrug Remaining ([2]; s9, 60 min): 8/96%; % of Baclofen Released (Pancreatin; pig, pancreatin, 1 h, pH 7.5): 43/58%; % of Prodrug Remaining (Pancreatin; pig, pancreatin, 1 h, pH 7.5): 43/58%; % of Baclofen Released ([3]; pH 2, 60 min): 103/0%; % of Prodrug Remaining ([3]; pH 2, 60 min): 103/0%; % of Baclofen Released ([3]; pH 7.4, 60 min): 100/0%; % of Prodrug Remaining ([3]; pH 7.4, 60 min): 100/0%; % of Baclofen Released ([3]; pH 8, 60 min): 107/2%; % of Prodrug Remaining ([3]; pH 8, 60 min): 107/2%; % of Baclofen Released ([5]; s9, 60 min): 1/105%; % of Prodrug Remaining ([5]; s9, 60 min): 1/105%; % of Baclofen Released ([6]; 60 min): 101/2%; % of Prodrug Remaining ([6]; 60 min): 101/2%
